Laboratory results published in patent US12168664B2, “Triazolopyrimidines, their preparation and use” (THE TRUSTEES OF COLUMBIA UNIVERSITY IN THE CITY OF NEW YORK, priority 2018, dated 2024).
Where “and” joins values, the source holds several entries; their conditions need not be identical. Identical values can stand only once.

What was measured:
RBP4-TTR interaction = RBP4-TTR interaction (Homo sapiens (Human), UniProt P02753); experiment: HTRF (TR-FRET) assay for antagonists of retinol-induced RBP4-TTR interaction; type: biochemical; conditions: in the presence of 1 μM retinol
Text: TR-FRET Assay for Retinol-Induced RBP4-TTR Interaction
Binding of a desired RBP4 antagonist displaces retinol and induces hindrance for RBP4-TTR interaction resulting in the decreased FRET signal (FIG. 7). Bacterially expressed MBP-RBP4 and untagged TTR were used in this assay. For the use in the TR-FRET assay, the maltose binding protein (MBP)-tagged human RBP4 fragment (amino acids 19-201) was expressed in the Gold(DE3)pLysS E. coli strain (Stratagene) using the pMAL-c4x vector. Following cell lysis, recombinant RBP4 was purified from the soluble fraction using the ACTA FPLC system (GE Healthcare) equipped with the 5-ml the MBP Trap HP column. Human untagged TTR was purchased from Calbiochem. Untagged TTR was labeled directly with Eu^3+ Cryptate-NHS using the HTRF Cryptate Labeling kit from CisBio following the manufacturer's recommendations. HTRF assay was performed in white low volume 384 well plates (Greiner-Bio) in a final assay volume of 16 μl per well. […] Titration of test compounds in this assay was conducted in the presence of 1 μM retinol. […] TR-FRET signal was measured in the SpectraMax M5e Multimode Plate Reader (Molecular Device). […] The TR-FRET signal was expressed as the ratio of fluorescence intensity: Flu665/Flu620×10,000.
The compounds listed below were tested in two in vitro assays, RBP4 binding (SPA) and retinol-dependent RBP4-TTR interaction (HTRF) (Table 1).

PPARγ = PPARγ (Homo sapiens (Human), UniProt P37231); experiment: PPARγ agonist assay (HTRF, PPARγ-NCOR interaction); type: biochemical; conditions: read-out: PPAR γ assay (HTRF) for agonists of this nuclear receptor - IC50
Text: Significant safety issues are associated with the clinical use of PPARγ agonists (increased risk of death, myocardial infarction, stroke, congestive heart failure, hepatotoxicity, peripheral edema, weight gain and carcinogenicity^1-4). We wanted to characterize the compounds we identified in a pilot screen as potential PPARγ agonists. The PPARγ assay is based on agonist-sensitive interaction of the GST-tagged ligand-binding domain (LRD) of the nuclear receptor PPARγ with the biotinylated corepressor NCOR peptide (FIG. 8).
Assay reactions are performed in a final volume of 16 ul.
In well of the 384-well assay plate, mix 6 ul of PPARγ solution, 4 ul of NCOR2 solution and 4 μl of Rosi solution. Test compounds diluted from DMSO stocks to 4× assay concentration in 1×HTRF, 100 mM KF buffer may be dispensed to well instead of Rosi. Negative control wells contained DMSO solvent alone; positive control well contained […]. […] Two μl of detection mix was added per well. […] The plate was incubated for 16 hrs at 4° C.
HTRF signal was measured in the SpectraMax M5e Multimode Plate Reader (Molecular Device). Fluorescence was excited at 337 nm. […] The signal was expressed as the ratio of fluorescence intensity: Flu668/Flu620×10,000. […]

[1] = Metabolic stability in liver microsomes (HLM); type: in vitro ADME, human
Experimental: (§1) The compounds listed below were tested in various metabolic stability and CYP inhibition assays.

CYP2C9 = CYP2C9 (Homo sapiens (Human), UniProt P11712); experiment: CYP inhibition, fluorescent, CYP2C9; type: in vitro ADME
Experimental: as §1

CYP2D6 = CYP2D6 (Homo sapiens (Human), UniProt P10635); experiment: CYP inhibition, fluorescent, CYP2D6; type: in vitro ADME
Experimental: as §1

CYP3A4 = CYP3A4 (Homo sapiens (Human), UniProt P08684); experiment: CYP inhibition, fluorescent, CYP3A4; type: in vitro ADME
Experimental: as §1

serum RBP4 [2] = target: T1, serum RBP4 (Mus musculus (Mouse), UniProt Q00724); experiment: Serum RBP4 reduction in Balb/c mice after a single oral administration; type: in vivo
Experimental: Pharmacodynamic Studies of 7a and 7p in Balb/c Mice Following a Single Oral Administration
Animal protocols were approved by the Institutional Animal Care and Use Committee of Columbia University and complied with guidelines set forth by The Association for Research in Vision and Ophthalmology. Compounds were prepared as a suspension in 0.9% NaCl, 2% Tween 80 for oral administration. Compounds were administered to Balb/c mice in a volume of 100 μL through oral gavage. The doses used were 15 mg/kg, 25 mg/kg and 35 mg/kg for 7a while two doses, 25 mg/kg and 35 mg/kg, were tested for DENG-31(FFB-0000082). Blood samples were collected at pre-dose and 1 hr, 2 hr, 4 hr, 6 hr, 8 hr, and 24 hr timepoints. Whole blood was drawn into a centrifuge tube and was let clot at room temperature for 30 min followed by centrifugation at 2,000×g for 15 minutes at +4° C. to collect serum. Serum RBP4 was measured using the RBP4 (mouse/rat) dual ELISA kit (AdipoGen) following the manufacturer's instructions.
In order to attain this objective, the effect of oral compound administration was studied in mice. Three doses of compound 7a and two doses of 7p were tested in Balb/c mice assay for reduction of serum RBP4.

serum RBP4 [3] = target: T1, serum RBP4; experiment: Serum RBP4 in Abca4−/− mice after 8-week dosing in chow; type: in vivo; conditions: 35 mg/kg daily oral in chow, 8 weeks
Experimental: Effect of 7a on accumulation of N-retinylidene-N-retinylethanolamine (A2E) in Eyes of the Abca4^−/− Mice
Animal protocols were approved by the Institutional Animal Care and Use Committee of Columbia University and complied with guidelines set forth by The Association for Research in Vision and Ophthalmology. […] Abca4^−/− (knockout) and C57BL/6J (wild-type control) mice were raised under 12 h on-off cyclic lighting with an in-cage illuminance of 30-50 lux. For long-term oral dosing 7a was formulated into Purina 5035 rodent chow at Research Diets, Inc. (New Brunswick, NJ) to ensure consistent 35 mg/kg daily oral dosing. Animals were administered the AKR-XI-85-containing chow for 8 weeks. Blood samples were collected at baseline and at the end of the dosing period for serum RBP4 measurements. Whole blood was drawn into a centrifuge tube and was let clot at room temperature for 30 min followed by centrifugation at 2,000×g for 15 minutes at +4° C. to collect serum. Serum RBP4 was measured using the RBP4 (mouse/rat) dual ELISA kit (AdipoGen) following the manufacturer's instructions.
To assess pre-clinical efficacy of 7a in the mouse Abca4^−/− model, the compound was formulated into a standard mouse chow to provide the daily oral dosing of 35 mg/kg. Long-term 8-week dosing of the compound formulated into a chow was conducted in Abca4^−/− mice. […]

Sequence of CYP2C9 (P11712 whole entry, species assumed): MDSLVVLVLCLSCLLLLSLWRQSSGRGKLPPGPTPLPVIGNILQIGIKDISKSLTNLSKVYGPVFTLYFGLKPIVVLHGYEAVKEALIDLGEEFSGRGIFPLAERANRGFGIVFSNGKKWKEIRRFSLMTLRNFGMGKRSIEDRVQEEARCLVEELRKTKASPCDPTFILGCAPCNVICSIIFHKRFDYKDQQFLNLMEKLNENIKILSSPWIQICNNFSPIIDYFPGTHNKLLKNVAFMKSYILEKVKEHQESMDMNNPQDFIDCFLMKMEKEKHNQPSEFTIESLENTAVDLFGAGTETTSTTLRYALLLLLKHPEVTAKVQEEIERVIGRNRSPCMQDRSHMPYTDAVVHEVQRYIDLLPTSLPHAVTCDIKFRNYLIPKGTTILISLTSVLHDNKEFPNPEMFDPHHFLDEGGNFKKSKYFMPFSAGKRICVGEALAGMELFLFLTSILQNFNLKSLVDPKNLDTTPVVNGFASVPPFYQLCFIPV
Sequence of PPARγ (P37231 204-505): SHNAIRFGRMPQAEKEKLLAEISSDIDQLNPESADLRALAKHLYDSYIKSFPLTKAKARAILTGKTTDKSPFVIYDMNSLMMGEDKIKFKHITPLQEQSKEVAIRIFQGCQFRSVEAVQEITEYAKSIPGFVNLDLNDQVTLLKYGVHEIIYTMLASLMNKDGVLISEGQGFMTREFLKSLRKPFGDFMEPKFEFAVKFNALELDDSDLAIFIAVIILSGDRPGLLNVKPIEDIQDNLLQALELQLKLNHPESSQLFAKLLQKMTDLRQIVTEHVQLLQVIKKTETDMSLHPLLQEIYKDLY
Sequence of CYP2D6 (P10635 whole entry, species assumed): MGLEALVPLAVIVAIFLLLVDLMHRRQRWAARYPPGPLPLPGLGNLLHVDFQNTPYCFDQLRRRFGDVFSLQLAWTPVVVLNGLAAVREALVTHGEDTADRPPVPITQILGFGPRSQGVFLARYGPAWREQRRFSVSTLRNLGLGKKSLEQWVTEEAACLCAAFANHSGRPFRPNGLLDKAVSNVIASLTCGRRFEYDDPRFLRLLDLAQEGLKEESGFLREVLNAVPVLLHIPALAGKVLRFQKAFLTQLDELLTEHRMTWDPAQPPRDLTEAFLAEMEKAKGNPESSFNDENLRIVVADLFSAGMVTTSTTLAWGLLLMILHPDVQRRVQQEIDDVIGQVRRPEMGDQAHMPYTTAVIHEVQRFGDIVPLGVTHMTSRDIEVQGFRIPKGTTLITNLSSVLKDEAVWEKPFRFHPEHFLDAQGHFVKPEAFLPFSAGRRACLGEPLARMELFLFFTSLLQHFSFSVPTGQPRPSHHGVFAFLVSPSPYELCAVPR
Sequence of CYP3A4 (P08684 whole entry, species assumed): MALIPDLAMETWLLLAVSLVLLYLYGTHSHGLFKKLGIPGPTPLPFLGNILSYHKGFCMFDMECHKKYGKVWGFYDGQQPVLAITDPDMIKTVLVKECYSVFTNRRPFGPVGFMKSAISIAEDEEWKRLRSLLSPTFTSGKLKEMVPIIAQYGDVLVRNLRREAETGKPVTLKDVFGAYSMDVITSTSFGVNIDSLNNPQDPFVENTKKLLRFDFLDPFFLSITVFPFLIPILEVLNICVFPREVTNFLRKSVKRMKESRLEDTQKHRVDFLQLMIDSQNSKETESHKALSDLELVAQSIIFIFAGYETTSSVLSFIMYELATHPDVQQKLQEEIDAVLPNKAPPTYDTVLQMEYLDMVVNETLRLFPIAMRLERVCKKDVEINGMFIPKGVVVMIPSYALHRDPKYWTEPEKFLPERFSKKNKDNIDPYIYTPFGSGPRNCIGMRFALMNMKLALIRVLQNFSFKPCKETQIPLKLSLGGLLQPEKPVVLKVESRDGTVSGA

## O=C(c1nc2ncccn2n1)N1C[C@H]2C[C@@H](c3ccccc3C(F)(F)F)C[C@H]2C1 [Compound 7a]
RBP4-TTR interaction
  IC50: 209 nM and 194 nM and 240 nM
PPARγ
  IC50: > 100 µM
[1]
  Metabolic stability in liver microsomes: % Remaining at 30 min, HLM: 85%
CYP2C9
  IC50: > 100 µM
CYP2D6
  IC50: > 100 µM
CYP3A4
  IC50: > 100 µM
Serum RBP4 [2]; single 15 mg/kg PO, at 4 hr
  maximum serum RBP4 reduction: 83%
Serum RBP4 [2]; single 25 mg/kg PO, at 6 hr timepoint
  maximum serum RBP4 reduction: 86%
Serum RBP4 [2]; single 35 mg/kg PO, at 8 hr timepoint
  maximum serum RBP4 reduction: 89%
Serum RBP4 [3]
  serum RBP4 reduction at end of 8-week treatment: Approximately 70%
